Patent publication US20050265999A1, “Modulation of 5-HT2 receptors as a treatment for cardiovascular diseases” (Myogen, Inc., priority 2003, published 2005)

Columns and labels:
HDAC5 = test: HDAC localization assay, GFP-HDAC5 in NRVM; format: cell-based, rat; conditions: NRVM, two hours; 18264 1 μM, PE 20 μM
Method: NRVM culture. For preparations of neonatal rat ventricular myocytes (NRVMs), hearts were removed from 10-20 newborn (1-2 days old) Sprague-Dawley rats. Isolated ventricles were pooled, minced and dispersed by three 20-min incubations at 37° C. in Ads buffer (116 mM NaCl, 20 mM HEPES, 10 mM NaH2PO4, 5.5 mM glucose, 5 mM KCl, 0.8 mM MgSO4, pH 7.4) containing collagenase Type II (65 units/ml, Worthington) and pancreatin (0.6 mg/ml, GibcoBRL). Dispersed cells were applied to a discontinuous gradient of 40.5% and 58.5% (v/v) Percoll (Amersham Biosciences), centrifuged, and myocytes collected from the interface layer. Myocyte preparations were pre-plated in Dulbecco's modified Eagle's medium (DMEM, Cellgro), supplemented with 10% (v/v) fetal bovine serum (FBS, HyClone), 4 mM L-glutamine and 1% penicillin/streptomycin for 1 hour at 37° C. to reduce fibroblast contamination, then plated at a density of 2.5×10^5 cells per well on 6-well tissue culture plates (or 10,000 cells/well on 96-well tissue culture plates) coated with a 0.2% (w/v) gelatin solution. After 24 hours in culture, myocyte preparations were transferred to serum-free maintenance medium (DMEM supplemented with 0.1% (v/v) Nutridoma (Roche), L-glutamine and penicillin/streptomycin). Where indicated, NRVM were treated with test compounds for a period of 48 h. For immunofluorescence applications, NRVM cultures were fixed, incubated with primary antibodies against alpha skeletal actin and atrial natriuretic factor, then incubated with rhodamine- or flurorescein-conjugated secondary antibodies. For HDAC localization assays, NRVM were plated to clear bottomed 96-well plates and infected overnight with recombinant adenovirus encoding HDAC5 fused to green fluorescent protein (multiplicity of infection=50). The next day, medium was replaced with serum-free maintenance medium for 4 hours, and test compounds added. After two hours, NRVM were fixed and imaged by fluorescent microscopy.

[1] = biological target: T1, Inositol Triphosphate IP3 (Rattus norvegicus, UniProt P29994); test: Radioligand receptor binding assay (MDS Pharma); conditions: 10 μM compound, n=2
T1 construct: purchased MDS Pharma services 242500
Method: (§1) Receptor binding assays. Receptor binding assays were performed by MDS Pharma services. Assays included: Adenosine A1 (cat# 200510), Adenosine A2A (cat# 200610), Adenosine A3 (cat# 200720), Adrenergic alpha 1 (cat# 203500), Imidazoline 12 central (cat# 241000), Imidazoline I2 peripheral (cat# 241100), Inositol triphosphate (cat# 242500), Phorbol Ester (cat# 264500), 5-HT 2B (cat# 271700), and 5-HT 4 (cat# 272000).
(§2) • Summary of radioligand binding assays for 11 receptors. Data represent % inhibition of ligand binding in the presence of 10 μM 18264 (n=2).

5-HT4 = biological target: T2, 5-HT4 (Cavia porcellus, UniProt O70528); test: Radioligand receptor binding assay (MDS Pharma)
T2 construct: purchased MDS Pharma services 272000
Method: as §1, §2

Adenosine A3 = biological target: T3, Adenosine A3 (Homo sapiens, UniProt P0DMS8); test: Radioligand receptor binding assay (MDS Pharma); conditions: 10 μM compound, n=2
T3 construct: purchased MDS Pharma services 200720
T3 sequence (P0DMS8 1-318): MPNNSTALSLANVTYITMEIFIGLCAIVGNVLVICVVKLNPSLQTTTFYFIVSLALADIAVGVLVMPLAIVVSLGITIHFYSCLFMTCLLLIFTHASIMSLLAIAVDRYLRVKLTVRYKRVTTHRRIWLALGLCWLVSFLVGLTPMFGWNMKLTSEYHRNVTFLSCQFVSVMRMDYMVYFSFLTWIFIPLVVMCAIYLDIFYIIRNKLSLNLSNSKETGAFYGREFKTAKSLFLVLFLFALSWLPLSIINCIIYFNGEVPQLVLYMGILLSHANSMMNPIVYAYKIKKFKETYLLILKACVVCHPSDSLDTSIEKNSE
Method: as §1, §2

Adenosine A1 = biological target: T4, Adenosine A1 (Homo sapiens, UniProt P30542); test: Radioligand receptor binding assay (MDS Pharma); conditions: 10 μM compound, n=2
T4 construct: purchased MDS Pharma services 200510
T4 sequence (P30542 1-326): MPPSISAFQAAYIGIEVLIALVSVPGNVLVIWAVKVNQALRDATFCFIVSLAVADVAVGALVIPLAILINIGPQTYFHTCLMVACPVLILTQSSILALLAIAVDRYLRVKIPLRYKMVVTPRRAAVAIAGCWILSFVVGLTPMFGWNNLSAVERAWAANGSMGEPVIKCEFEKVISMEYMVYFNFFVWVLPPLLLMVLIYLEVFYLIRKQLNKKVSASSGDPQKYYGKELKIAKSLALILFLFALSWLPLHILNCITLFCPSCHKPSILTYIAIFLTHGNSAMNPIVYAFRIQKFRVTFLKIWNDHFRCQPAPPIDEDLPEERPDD
Method: as §1, §2

Adenosine A2A = biological target: T5, Adenosine A2A (Homo sapiens, UniProt P29274); test: Radioligand receptor binding assay (MDS Pharma); conditions: 10 μM compound, n=2
T5 construct: purchased MDS Pharma services 200610
Method: as §1, §2

Imidazoline I2, central = test: Radioligand receptor binding assay (MDS Pharma); conditions: 10 μM compound, n=2
Method: as §1, §2

Phorbol Ester = test: Radioligand receptor binding assay (MDS Pharma); conditions: 10 μM compound, n=2
Method: as §1, §2

[2] = test system: Imidazoline I2, peripheral; test: Radioligand receptor binding assay (MDS Pharma); conditions: 10 μM compound, n=2
Method: as §1, §2

Adrenergic alpha 1 = test: Radioligand receptor binding assay (MDS Pharma); conditions: 10 μM compound, n=2
Method: as §1, §2

[3] = test system: neonatal rat ventricular myocytes (NRVM); test: Cell volume measurement (Coulter counter) of NRVM; format: cell-based; conditions: NRVM stimulated with compound alone
Method: (§3) NRVM culture. For preparations of neonatal rat ventricular myocytes (NRVMs), hearts were removed from 10-20 newborn (1-2 days old) Sprague-Dawley rats. Isolated ventricles were pooled, minced and dispersed by three 20-min incubations at 37° C. in Ads buffer (116 mM NaCl, 20 mM HEPES, 10 mM NaH2PO4, 5.5 mM glucose, 5 mM KCl, 0.8 mM MgSO4, pH 7.4) containing collagenase Type II (65 units/ml, Worthington) and pancreatin (0.6 mg/ml, GibcoBRL). Dispersed cells were applied to a discontinuous gradient of 40.5% and 58.5% (v/v) Percoll (Amersham Biosciences), centrifuged, and myocytes collected from the interface layer. Myocyte preparations were pre-plated in Dulbecco's modified Eagle's medium (DMEM, Cellgro), supplemented with 10% (v/v) fetal bovine serum (FBS, HyClone), 4 mM L-glutamine and 1% penicillin/streptomycin for 1 hour at 37° C. to reduce fibroblast contamination, then plated at a density of 2.5×10^5 cells per well on 6-well tissue culture plates (or 10,000 cells/well on 96-well tissue culture plates) coated with a 0.2% (w/v) gelatin solution. […]
(§4) Hypertrophy and toxicity assays. Primary hypertrophy endpoints for NRVM included quantitation of: ANF secretion, total cellular protein and cell volume. ANF in media supernatants was quantitated by competitive ELISA using a monoclonal anti-ANF antibody (Biodesign) and a biotinylated ANF peptide (Phoenix Peptide). Total cellular protein was quantitated by standard Coomassie dye-binding assay; cells were lysed in protein assay reagent (BioRad) and absorbance at A595 was measured after 1 hour. […] After recovery by centrifugation, cell pellets were washed in PBS, resuspended in 10 ml IsoFlow electrolyte solution (Beckman-Coulter) and analyzed with a Z2 Coulter Particle Counter and Size Analyzer (Beckman-Coulter). Cytotoxicity was quantitated by measuring release of adenylate kinase (AK) from cultured NRVM into culture medium (ToxiLight kit, Cambrex).

[4] = test system: neonatal rat ventricular myocytes (NRVM); test: ANF secretion by competitive ELISA in NRVM; format: cell-based; conditions: NRVM stimulated with compound alone
Method: as §3, §4

5-HT2B = biological target: T6, 5-HT2B (Homo sapiens, UniProt P41595); test: Radioligand receptor binding assay (MDS Pharma); conditions: 10 μM compound, n=2
T6 construct: purchased MDS Pharma services 271700
Method: as §1, §2
• Summary of radioligand binding assays for three receptors. Data represent % inhibition of ligand binding in the presence of 10 μM 20068 (n=2).

T2 sequence (O70528 whole entry): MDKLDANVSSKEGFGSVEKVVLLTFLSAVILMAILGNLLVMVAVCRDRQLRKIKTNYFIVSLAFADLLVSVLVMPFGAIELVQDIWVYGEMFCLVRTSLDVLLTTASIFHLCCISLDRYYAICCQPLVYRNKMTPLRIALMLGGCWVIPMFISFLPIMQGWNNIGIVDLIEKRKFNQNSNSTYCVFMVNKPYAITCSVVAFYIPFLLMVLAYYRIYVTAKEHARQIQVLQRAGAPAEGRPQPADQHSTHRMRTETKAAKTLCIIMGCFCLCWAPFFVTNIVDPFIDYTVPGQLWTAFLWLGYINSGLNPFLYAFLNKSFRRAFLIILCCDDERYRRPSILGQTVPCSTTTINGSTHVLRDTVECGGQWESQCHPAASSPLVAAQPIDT
T1 sequence (P29994 whole entry): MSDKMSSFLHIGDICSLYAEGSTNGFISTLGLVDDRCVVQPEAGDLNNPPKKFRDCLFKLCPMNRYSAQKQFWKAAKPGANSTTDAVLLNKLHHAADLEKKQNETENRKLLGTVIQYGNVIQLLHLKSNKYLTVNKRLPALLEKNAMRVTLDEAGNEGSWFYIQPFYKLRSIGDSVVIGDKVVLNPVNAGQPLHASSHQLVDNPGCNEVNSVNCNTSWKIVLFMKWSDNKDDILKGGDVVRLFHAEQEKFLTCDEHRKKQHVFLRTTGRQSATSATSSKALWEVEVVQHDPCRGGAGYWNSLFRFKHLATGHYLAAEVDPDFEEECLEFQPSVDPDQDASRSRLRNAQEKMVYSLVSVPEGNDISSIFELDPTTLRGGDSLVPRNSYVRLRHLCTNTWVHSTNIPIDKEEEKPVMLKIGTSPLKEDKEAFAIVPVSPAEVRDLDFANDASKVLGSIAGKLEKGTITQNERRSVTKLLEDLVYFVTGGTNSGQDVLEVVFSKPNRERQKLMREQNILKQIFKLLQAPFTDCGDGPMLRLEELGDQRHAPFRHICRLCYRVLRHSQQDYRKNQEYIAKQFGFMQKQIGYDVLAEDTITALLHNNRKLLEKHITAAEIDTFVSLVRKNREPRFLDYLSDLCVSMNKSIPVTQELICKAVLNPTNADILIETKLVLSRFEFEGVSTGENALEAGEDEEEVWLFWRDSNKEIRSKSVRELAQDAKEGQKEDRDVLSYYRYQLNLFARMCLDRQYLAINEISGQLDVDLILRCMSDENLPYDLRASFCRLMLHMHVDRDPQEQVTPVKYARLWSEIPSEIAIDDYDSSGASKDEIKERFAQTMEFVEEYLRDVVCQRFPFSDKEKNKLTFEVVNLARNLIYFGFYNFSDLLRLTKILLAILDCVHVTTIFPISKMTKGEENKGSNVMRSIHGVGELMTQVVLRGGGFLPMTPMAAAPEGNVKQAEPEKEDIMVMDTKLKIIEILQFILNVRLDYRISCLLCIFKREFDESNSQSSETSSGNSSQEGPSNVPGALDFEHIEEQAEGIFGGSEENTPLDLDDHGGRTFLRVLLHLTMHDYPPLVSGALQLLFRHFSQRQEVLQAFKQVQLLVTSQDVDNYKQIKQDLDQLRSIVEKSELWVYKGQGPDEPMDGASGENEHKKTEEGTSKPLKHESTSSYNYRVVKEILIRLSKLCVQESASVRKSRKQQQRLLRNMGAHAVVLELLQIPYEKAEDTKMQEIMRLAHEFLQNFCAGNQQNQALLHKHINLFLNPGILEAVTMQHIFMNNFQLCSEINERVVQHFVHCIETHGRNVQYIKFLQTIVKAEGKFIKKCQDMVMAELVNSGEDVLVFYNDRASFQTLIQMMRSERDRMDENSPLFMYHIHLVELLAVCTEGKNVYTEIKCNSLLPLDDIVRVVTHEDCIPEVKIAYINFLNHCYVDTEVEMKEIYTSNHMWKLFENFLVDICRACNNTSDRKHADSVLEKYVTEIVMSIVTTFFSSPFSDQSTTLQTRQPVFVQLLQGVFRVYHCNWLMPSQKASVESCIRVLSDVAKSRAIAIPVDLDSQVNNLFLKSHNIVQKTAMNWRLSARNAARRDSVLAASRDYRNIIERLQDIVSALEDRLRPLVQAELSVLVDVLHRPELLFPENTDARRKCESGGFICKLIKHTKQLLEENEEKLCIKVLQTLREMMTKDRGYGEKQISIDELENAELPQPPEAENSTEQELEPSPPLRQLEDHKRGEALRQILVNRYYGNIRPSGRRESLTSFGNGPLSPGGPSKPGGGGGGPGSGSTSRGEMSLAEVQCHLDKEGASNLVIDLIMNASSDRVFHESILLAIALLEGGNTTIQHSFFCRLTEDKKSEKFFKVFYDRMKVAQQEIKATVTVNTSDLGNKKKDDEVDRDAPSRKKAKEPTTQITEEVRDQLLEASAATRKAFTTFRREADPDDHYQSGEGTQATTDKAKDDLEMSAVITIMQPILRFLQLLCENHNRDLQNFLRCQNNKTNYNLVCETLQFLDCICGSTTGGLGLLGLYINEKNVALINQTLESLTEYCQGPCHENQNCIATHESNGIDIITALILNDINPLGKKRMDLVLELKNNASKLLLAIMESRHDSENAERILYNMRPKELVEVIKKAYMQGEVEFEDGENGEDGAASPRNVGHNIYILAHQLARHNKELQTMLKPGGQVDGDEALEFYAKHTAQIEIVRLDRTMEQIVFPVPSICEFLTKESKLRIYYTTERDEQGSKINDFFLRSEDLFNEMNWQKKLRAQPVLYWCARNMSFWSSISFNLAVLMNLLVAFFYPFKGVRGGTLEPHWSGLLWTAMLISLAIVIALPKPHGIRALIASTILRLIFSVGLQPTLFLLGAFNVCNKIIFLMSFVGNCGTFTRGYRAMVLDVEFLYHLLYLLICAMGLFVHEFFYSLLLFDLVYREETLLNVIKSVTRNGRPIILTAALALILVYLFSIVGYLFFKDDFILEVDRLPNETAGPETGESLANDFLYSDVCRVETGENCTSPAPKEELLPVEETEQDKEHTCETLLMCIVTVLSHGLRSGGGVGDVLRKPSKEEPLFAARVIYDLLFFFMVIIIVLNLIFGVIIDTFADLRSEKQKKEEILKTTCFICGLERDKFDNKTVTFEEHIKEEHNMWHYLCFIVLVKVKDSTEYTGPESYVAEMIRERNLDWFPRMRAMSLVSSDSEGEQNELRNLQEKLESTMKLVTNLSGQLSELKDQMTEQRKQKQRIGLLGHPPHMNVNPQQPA
T6 sequence (P41595 whole entry): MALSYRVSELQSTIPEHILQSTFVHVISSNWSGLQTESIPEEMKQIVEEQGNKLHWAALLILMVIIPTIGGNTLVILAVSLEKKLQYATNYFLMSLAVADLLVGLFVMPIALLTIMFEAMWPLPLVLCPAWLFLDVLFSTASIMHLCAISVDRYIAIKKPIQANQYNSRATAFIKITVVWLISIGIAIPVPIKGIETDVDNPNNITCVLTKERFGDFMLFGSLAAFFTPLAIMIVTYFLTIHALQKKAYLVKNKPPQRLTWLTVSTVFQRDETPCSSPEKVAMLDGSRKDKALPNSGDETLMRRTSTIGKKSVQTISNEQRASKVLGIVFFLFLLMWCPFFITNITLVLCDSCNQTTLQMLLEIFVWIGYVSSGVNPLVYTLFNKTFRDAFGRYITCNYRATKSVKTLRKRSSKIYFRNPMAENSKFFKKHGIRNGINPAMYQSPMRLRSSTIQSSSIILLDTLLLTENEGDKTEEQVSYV
T5 sequence (P29274 whole entry): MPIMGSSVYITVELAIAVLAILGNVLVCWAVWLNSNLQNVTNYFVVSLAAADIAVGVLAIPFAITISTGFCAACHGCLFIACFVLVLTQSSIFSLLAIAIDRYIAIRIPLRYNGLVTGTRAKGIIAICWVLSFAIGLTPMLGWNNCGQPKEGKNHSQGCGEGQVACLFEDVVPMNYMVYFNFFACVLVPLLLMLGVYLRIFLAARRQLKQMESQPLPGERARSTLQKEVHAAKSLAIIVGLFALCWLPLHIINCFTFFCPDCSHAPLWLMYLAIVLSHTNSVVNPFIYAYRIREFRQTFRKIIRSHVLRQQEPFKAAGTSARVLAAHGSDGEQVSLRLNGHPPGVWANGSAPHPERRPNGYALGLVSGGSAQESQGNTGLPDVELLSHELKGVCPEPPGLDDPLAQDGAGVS

## Cc1c(-c2ccccc2)nc2sc3c(c2c1N)CCCC3 [Compound 18264, 3-Methyl-2-phenyl-5,6,7,8-tetrahydro-benzo[4,5]thieno[2,3-b]pyridin-4-ylamine]
HDAC5
  nuclear export of HDAC5-GFP: driven from the nucleus to the cytoplasm
[1]
  inhibition at 10 µM: 3%
5-HT4; 10 μM compound, n=2
  inhibition at 10 µM: 17%
5-HT4; radioligand binding, 10 μM
  binding (in words): No significant binding
Adenosine A3
  inhibition at 10 µM: 24%
Adenosine A1
  inhibition at 10 µM: 17%
Adenosine A2A
  inhibition at 10 µM: 14%
Imidazoline I2, central
  % Inhibition of Binding: 15%
Phorbol Ester
  % Inhibition of Binding: 2%
[2]
  % Inhibition of Binding: 4%
Adrenergic alpha 1
  % Inhibition of Binding: 17%
[3]
  cell volume: increased
[4]
  ANF expression/secretion: up-regulated ANF expression
5-HT2B
  inhibition at 10 µM: 97%
